# Measurements reported in ChEMBL document CHEMBL1153187 (Bioorg Med Chem Lett, 2010).
# pIC50: −log10 of the molar value.
# Experiments:
# Leishmania amazonensis [1] = test: Antileishmanial activity against Leishmania amazonensis MHOM/BR/76/LTB-012 axenic amastigotes by MTT assay
# Leishmania braziliensis = test: Antileishmanial activity against Leishmania braziliensis MHOM/PE/PER006 promastigotes infected in mouse macrophage by MTT assay; type: functional, organism-based
# Leishmania peruviana = test: Antileishmanial activity against Leishmania peruviana MHOM/PE/LCA08 promastigotes infected in mouse macrophage by MTT assay; type: functional, organism-based
# [2] = Toxicity against BALB/c mouse macrophage by MTT assay; type: cell-based; conditions: mouse macrophages
# [3] = Selectivity index, ratio of IC50 for BALB/c macrophages to IC50 for Leishmania amazonensis (MHOM/BR/76/LTB-012)
# Leishmania amazonensis [4] = test: Antileishmanial activity against Leishmania amazonensis LMA CL1 amastigotes infected in mouse macrophage by MTT assay; type: functional, organism-based
# Leishmania amazonensis [5] = test: Antileishmanial activity against Leishmania amazonensis LV79 MPRO/BR/72/M1841 infected in BALB/c mouse assessed as lesion diameter at 5 mg/kg after 4 weeks; type: functional
# Leishmania amazonensis [6] = test: Antileishmanial activity against Leishmania amazonensis LV79 MPRO/BR/72/M1841 infected in BALB/c mouse assessed as reduction in parasite burden at 5 mg/kg after 6 weeks; type: functional; parameters: scale not given: the % may be the effect or the level left
# Leishmania amazonensis [7] = test: Antileishmanial activity against Leishmania amazonensis LV79 MPRO/BR/72/M1841 infected in BALB/c mouse assessed as lesion diameter at 33 mg/kg after 4 weeks; type: functional, organism-based; parameters: dose 33 mg/kg
# Leishmania amazonensis [8] = test: Antileishmanial activity against Leishmania amazonensis LV79 MPRO/BR/72/M1841 infected in BALB/c mouse assessed as reduction in parasite burden at 33 mg/kg after 4 weeks; type: functional, organism-based; parameters: dose 33 mg/kg; scale not given: the % may be the effect or the level left
# Leishmania amazonensis [9] = test: Antileishmanial activity against Leishmania amazonensis LV79 MPRO/BR/72/M1841 infected in BALB/c mouse assessed as reduction in parasite burden at 33 mg/kg after 7 weeks; type: functional, organism-based; parameters: dose 33 mg/kg; scale not given: the % may be the effect or the level left
# Leishmania amazonensis [10] = test: Antileishmanial activity against Leishmania amazonensis LV79 MPRO/BR/72/M1841 infected in BALB/c mouse assessed as reduction in parasite burden at 5 mg/kg after 4 weeks; type: functional; parameters: scale not given: the % may be the effect or the level left
Compound,pIC50 (Leishmania amazonensis [1]),pIC50 [2],Ratio IC50 [3],further results
COc1cc(O)cc(O)c1C(=O)/C=C/C=C/c1ccccc1,4.28,–,–,–
C=CCOc1cc(OC)c(C(=O)/C=C/c2ccc(C)cc2)c(OCC=C)c1,4.10,–,–,–
COc1cc(O)cc(O)c1C(=O)/C=C/c1ccco1,5.34,3.42,83.5,pIC50 (Leishmania braziliensis): 4.52; pIC50 (Leishmania peruviana): 4.47; pIC50 (Leishmania amazonensis [4]): 4.77
C=CCOc1cc(OC)c(C(=O)/C=C/c2ccccc2Br)c(OCC=C)c1,5.10,5.27,0.7,–
C=CCOc1cc(OC)c(C(=O)/C=C/c2ccc(OC)cc2)c(OCC=C)c1,5.26,4.73,3.4,–
COc1cc(O)cc(O)c1C(=O)/C=C/c1ccccc1F,4.93,4.80,1.4,–
C=CCOc1cc(OC)c(C(=O)/C=C/c2ccc([N+](=O)[O-])cc2)c(OCC=C)c1,5.08,4.88,1.6,–
C=CCOc1cc(OC)c(C(=O)/C=C/c2cc(OC)c(OC)c(OC)c2)c(OCC=C)c1,5.09,4.92,1.5,–
C=CCOc1cc(OC)c(C(=O)/C=C/c2ccccn2)c(OCC=C)c1,5.96,4.90,11.4,pIC50 (Leishmania braziliensis): 5.85; pIC50 (Leishmania peruviana): 5.40; pIC50 (Leishmania amazonensis [4]): 6.05; Activity (Leishmania amazonensis [5]): 3 mm; Activity (Leishmania amazonensis [6]): 25%
COc1ccc(/C=C/C(=O)c2c(O)cc(O)cc2OC)c(OC)c1,5.19,< 3.52,>50,pIC50 (Leishmania amazonensis [4]): 4.55
C=CCOc1cc(OC)c(C(=O)/C=C/c2ccc3c(c2)OCO3)c(OCC=C)c1,5.18,–,–,–
COc1cccc(/C=C/C(=O)c2c(O)cc(O)cc2OC)c1,4.92,4.75,1.5,–
COc1cc(/C=C/C(=O)c2c(O)cc(O)cc2OC)ccc1O,4.83,–,–,–
C=CCOc1cc(OC)c(C(=O)/C=C/c2cccc(OC)c2)c(OCC=C)c1,5.06,4.88,1.5,–
COc1cc(O)cc(O)c1C(=O)/C=C/c1ccc2c(c1)OCO2,5.39,3.80,38.3,pIC50 (Leishmania braziliensis): 5.07; pIC50 (Leishmania peruviana): 4.71; pIC50 (Leishmania amazonensis [4]): 4.78
COc1cc(/C=C/C(=O)c2c(O)cc(O)cc2OC)cc(OC)c1OC,5.01,–,–,–
COc1cc(O)cc(O)c1C(=O)/C=C/c1ccccc1Br,4.97,4.84,1.4,–
C[C@@H]1[C@H](O)[C@@H](C)/C=C/C=C/C=C/C=C/C=C/C=C/C=C/[C@H](O[C@@H]2O[C@H](C)[C@@H](O)[C@H](N)[C@@H]2O)C[C@@H]2O[C@](O)(C[C@@H](O)C[C@@H](O)[C@H](O)CC[C@@H](O)C[C@@H](O)CC(=O)O[C@H]1C)C[C@H](O)[C@H]2C(=O)O [AMPHOTERICIN B],7.00,5.28,76,pIC50 (Leishmania braziliensis): 7.00; pIC50 (Leishmania peruviana): 7.00; pIC50 (Leishmania amazonensis [4]): 6.40

Compound,pIC50 (Leishmania amazonensis [1]),pIC50 [2],Ratio IC50 [3],further results
C=CCOc1cc(OC)c(C(=O)/C=C/C=C/c2ccccc2)c(OCC=C)c1,4.12,–,–,–
MEGLUMINE ANTIMONATE,–,–,–,Activity (Leishmania amazonensis [7]): 2.1 mm; Activity (Leishmania amazonensis [8]): 100%; Activity (Leishmania amazonensis [9]): 100%
C=CCOc1cc(OC)c(C(=O)/C=C/c2ccc(O)cc2)c(OCC=C)c1,4.07,–,–,–
C=CCOc1cc(OC)c(C(=O)/C=C/c2ccncc2)c(OCC=C)c1,6.22,–,–,–
COc1cc(O)cc(O)c1C(=O)/C=C/c1ccc(C(F)(F)F)cc1,5.07,4.77,2,–
COc1ccc(/C=C/C(=O)c2c(O)cc(OC)cc2OC)cc1 [FLAVOKAWAIN A],4.76,–,–,–
C=CCOc1cc(OC)c(C(=O)/C=C/c2ccccc2F)c(OCC=C)c1,5.02,4.88,1.4,–
COc1cc(O)cc(O)c1C(=O)/C=C/c1ccc(O)cc1 [HELICHRYSETIN],4.80,4.66,1.4,–
COc1cc(O)cc(O)c1C(=O)/C=C/c1ccc(F)cc1,4.93,4.54,2.4,–
C=CCOc1cc(OC)c(C(=O)/C=C/c2ccc(F)cc2)c(OCC=C)c1,5.02,4.86,1.5,–
COc1cc(O)cc(O)c1C(=O)/C=C/c1ccc(C)cc1,5.13,4.78,2.2,–
COc1ccc(/C=C/C(=O)c2c(O)cc(O)cc2OC)cc1,5.00,3.78,16.6,pIC50 (Leishmania braziliensis): 5.12; pIC50 (Leishmania peruviana): 4.64; pIC50 (Leishmania amazonensis [4]): 4.84
C=CCOc1cc(/C=C/C(=O)c2c(O)cc(O)cc2OC)cc(OCC=C)c1Br,5.96,4.94,10.5,pIC50 (Leishmania braziliensis): 4.84; pIC50 (Leishmania amazonensis [4]): 5.39; Activity (Leishmania amazonensis [5]): 3.1 mm; Activity (Leishmania amazonensis [10]): 9%; Activity (Leishmania amazonensis [6]): 8%
C=CCOc1cc(OC)c(C(=O)/C=C/c2ccc(Cl)cc2)c(OCC=C)c1,5.03,4.89,1.4,–
COc1cc(O)cc(O)c1C(=O)/C=C/c1ccc(Cl)cc1,4.95,4.72,1.7,–
C=CCOc1cc(OC)c(C(=O)/C=C/c2ccc[nH]2)c(OCC=C)c1,4.03,–,–,–
C=CCOc1cc(OC)c(C(=O)/C=C/c2ccc(O)c(OC)c2)c(OCC=C)c1,3.97,–,–,–
